Assays:
[1] = system: 60 human tumor cell lines panel; test: NCI-60 anticancer screen, whole panel (means and ranges over the cell lines); type: cell-based
[2] = system: OVCAR-3; test: cells; conditions: Homo sapiens
[3] = system: K-562; test: NCI-60 anticancer screen (SRB; single dose and five doses); conditions: Homo sapiens
[4] = system: SR; test: as above; conditions: Homo sapiens
[5] = system: A549/ATCC; test: as above; conditions: Homo sapiens
[6] = system: EKVX; test: as above; conditions: Homo sapiens
[7] = system: HOP-92; test: as above; conditions: Homo sapiens
[8] = system: NCI-H522; test: as above; conditions: Homo sapiens
[9] = system: HT29; test: as above; conditions: Homo sapiens
[10] = system: KM12; test: as above; conditions: Homo sapiens
[11] = system: SW-620; test: as above; conditions: Homo sapiens
[12] = system: SF-539; test: as above; conditions: Homo sapiens
[13] = system: SNB-75; test: as above
[14] = system: MDA-MB-435; test: as above; conditions: Homo sapiens
[15] = system: SK-MEL-28; test: as above; conditions: Homo sapiens
[16] = system: IGROV1; test: as above; conditions: Homo sapiens
[17] = system: OVCAR-5; test: as above; conditions: Homo sapiens
[18] = system: NCI/ADR-RES; test: as above; conditions: Homo sapiens
[19] = system: SK-OV-3; test: as above; conditions: Homo sapiens
[20] = system: A498; test: as above; conditions: Homo sapiens
[21] = system: ACHN; test: as above; conditions: Homo sapiens
[22] = system: CAKI-1; test: as above; conditions: Homo sapiens
[23] = system: RXF 393; test: as above; conditions: Homo sapiens
[24] = system: SN12C; test: as above; conditions: Homo sapiens
[25] = system: PC-3; test: as above; conditions: Homo sapiens
[26] = system: DU-145; test: as above; conditions: Homo sapiens
[27] = system: MDA-MB-231/ATCC; test: as above; conditions: Homo sapiens
[28] = system: HS 578T; test: as above; conditions: Homo sapiens
[29] = system: CCRF-CEM; test: NCI-60 anticancer screen (SRB; single dose 10 μM and five doses); conditions: Homo sapiens
[30] = five doses, mean graph midpoint over all cell lines
[31] = 48 h, read-out: Growth Percentage

Cc1[nH]c(=S)sc1C(=O)/C=C/c1cccc(Cl)c1 [2e, (E)-3-(3-Chlorophenyl)-1-(4-Methyl-2-Thioxo-2,3-Dihydrothiazol-5-yl)Prop-2-En-1-One]
activity at 10 µM ([1]; Homo sapiens, 48 h, range over the cell lines, dose of 10 μM, read-out: growth percentages against most of the tested cells (lowest to highest)): -26.1 to 98% | Log10GI50 _MID [1, 30]: -5.17 Molar | Log10LC50 _MID [1, 30]: -4.26 Molar | Log10TGI _MID [1, 30]: -4.66 Molar | GI50 ([2]; OVCAR-3): 2.29 µM | IC50 ([2]; OVCAR-3): 4.17 µM | activity at 10 µM ([2]; OVCAR-3, 48 h, read-out: Growth Percentage): 8.26% | CC50 ([2]; OVCAR-3, read-out: LC50): 22.9 µM | IC (TGI) ([2]; OVCAR-3, read-out: TGI): 6.03 µM | GI50 ([3]; K562): 3.39 µM | IC50 ([3]; K562): 4.27 µM | activity at 10 µM ([3]; K562, 48 h, read-out: Growth Percentage): 16.8% | CC50 ([3]; K562, read-out: LC50): > 100 µM | IC (TGI) ([3]; K562, read-out: TGI): > 100 µM | GI50 [4]: 2.63 µM | IC50 [4]: 3.89 µM | activity at 10 µM [4, 31]: 3.42% | CC50 ([4]; read-out: LC50): > 100 µM | IC (TGI) ([4]; read-out: TGI): > 100 µM | GI50 ([5]; A549): 4.79 µM | IC50 ([5]; A549): 7.41 µM | activity at 10 µM ([5]; A549, 48 h, read-out: Growth Percentage): 26.5% | CC50 ([5]; A549, read-out: LC50): > 100 µM | IC (TGI) ([5]; A549, read-out: TGI): 47.9 µM | GI50 [6]: 10.5 µM | IC50 [6]: 24 µM | activity at 10 µM [6, 31]: 34.7% | CC50 ([6]; read-out: LC50): 95.5 µM | IC (TGI) ([6]; read-out: TGI): 31.6 µM | GI50 ([7]; HOP-92): 3.55 µM | IC50 ([7]; HOP-92): 79.4 µM | CC50 ([7]; HOP-92, read-out: LC50): > 100 µM | IC (TGI) ([7]; HOP-92, read-out: TGI): 30.9 µM | GI50 ([8]; NCI-H522): 4.57 µM | IC50 ([8]; NCI-H522): 11.5 µM | activity at 10 µM ([8]; NCI-H522, 48 h, read-out: Growth Percentage): 22% | CC50 ([8]; NCI-H522, read-out: LC50): 45.7 µM | IC (TGI) ([8]; NCI-H522, read-out: TGI): 17.4 µM | GI50 ([9]; HT-29): 2.24 µM | IC50 ([9]; HT-29): 3.55 µM | activity at 10 µM ([9]; HT-29, 48 h, read-out: Growth Percentage): 29.9% | CC50 ([9]; HT-29, read-out: LC50): 12.6 µM | IC (TGI) ([9]; HT-29, read-out: TGI): 4.9 µM | GI50 ([10]; KM12): 1.95 µM | IC50 ([10]; KM12): 3.39 µM | activity at 10 µM ([10]; KM12, 48 h, read-out: Growth Percentage): -30.7% | IC (TGI) ([10]; KM12, read-out: TGI): 3.89 µM | GI50 ([11]; SW-620): 1.91 µM | IC50 ([11]; SW-620): 3.16 µM | activity at 10 µM ([11]; SW-620, 48 h, read-out: Growth Percentage): 8.6% | CC50 ([11]; SW-620, read-out: LC50): 7.59 µM | IC (TGI) ([11]; SW-620, read-out: TGI): 3.8 µM | GI50 ([12]; SF-539): 2 µM | IC50 ([12]; SF-539): 3.63 µM | activity at 10 µM ([12]; SF-539, 48 h, read-out: Growth Percentage): -10.7% | IC (TGI) ([12]; SF-539, read-out: TGI): 4.07 µM | GI50 ([13]; Homo sapiens, SNB-75): 1.66 µM | IC50 ([13]; Homo sapiens, SNB-75): 3.8 µM | activity at 10 µM ([13]; Homo sapiens, SNB-75, 48 h, read-out: Growth Percentage): 8.74% | TGI ([13]; five-dose, CNS Cancer SNB-75): 3.63 µM | GI50 ([14]; MDA-MB-435): 2.09 µM | IC50 ([14]; MDA-MB-435): 3.55 µM | activity at 10 µM ([14]; MDA-MB-435, 48 h, read-out: Growth Percentage): 17.3% | CC50 ([14]; MDA-MB-435, read-out: LC50): 17 µM | IC (TGI) ([14]; MDA-MB-435, read-out: TGI): 5.01 µM | GI50 ([15]; SK-MEL-28): 2.14 µM | IC50 ([15]; SK-MEL-28): 4.07 µM | activity at 10 µM ([15]; SK-MEL-28, 48 h, read-out: Growth Percentage): 44.7% | CC50 ([15]; SK-MEL-28, read-out: LC50): 13.5 µM | IC (TGI) ([15]; SK-MEL-28, read-out: TGI): 4.9 µM | GI50 ([16]; IGROV-1): 2.45 µM | IC50 ([16]; IGROV-1): 4.17 µM | activity at 10 µM ([16]; IGROV-1, 48 h, read-out: Growth Percentage): 34% | CC50 ([16]; IGROV-1, read-out: LC50): > 100 µM | IC (TGI) ([16]; IGROV-1, read-out: TGI): 6.46 µM | GI50 ([17]; OVCAR-5): 5.25 µM | IC50 ([17]; OVCAR-5): 15.5 µM | activity at 10 µM ([17]; OVCAR-5, 48 h, read-out: Growth Percentage): 36.4% | CC50 ([17]; OVCAR-5, read-out: LC50): 57.5 µM | IC (TGI) ([17]; OVCAR-5, read-out: TGI): 19.9 µM | GI50 [18]: 2.88 µM | IC50 [18]: 5.01 µM | activity at 10 µM [18, 31]: -5.11% | CC50 ([18]; read-out: LC50): > 100 µM | IC (TGI) ([18]; read-out: TGI): > 100 µM | GI50 ([19]; SK-OV-3): 17.4 µM | IC50 ([19]; SK-OV-3): 51.3 µM | activity at 10 µM ([19]; SK-OV-3, 48 h, read-out: Growth Percentage): 59.9% | CC50 ([19]; SK-OV-3, read-out: LC50): > 100 µM | IC (TGI) ([19]; SK-OV-3, read-out: TGI): > 100 µM | GI50 ([20]; A498): 19.5 µM | IC50 ([20]; A498): 47.9 µM | activity at 10 µM ([20]; A498, 48 h, read-out: Growth Percentage, A498, dose of 10 μM): 98% | CC50 ([20]; A498, read-out: LC50): 91.2 µM | IC (TGI) ([20]; A498, read-out: TGI): 42.7 µM | GI50 [21]: 2.29 µM | IC50 [21]: 3.72 µM | activity at 10 µM [21, 31]: 22.9% | CC50 ([21]; read-out: LC50): 21.4 µM | IC (TGI) ([21]; read-out: TGI): 6.03 µM | GI50 ([22]; CAKI-1): 4.68 µM | IC50 ([22]; CAKI-1): 15.5 µM | activity at 10 µM ([22]; CAKI-1, 48 h, read-out: Growth Percentage): 23.9% | CC50 ([22]; CAKI-1, read-out: LC50): 69.2 µM | IC (TGI) ([22]; CAKI-1, read-out: TGI): 20.9 µM | GI50 ([23]; RXF 393): 1.91 µM | IC50 ([23]; RXF 393): 5.13 µM | activity at 10 µM ([23]; RXF 393, 48 h, read-out: Growth Percentage): 10.7% | CC50 ([23]; RXF 393, read-out: LC50): 10 µM | IC (TGI) ([23]; RXF 393, read-out: TGI): 4.37 µM | GI50 [24]: 2 µM | IC50 [24]: 3.55 µM | activity at 10 µM [24, 31]: 12% | CC50 ([24]; read-out: LC50): 8.91 µM | IC (TGI) ([24]; read-out: TGI): 4.27 µM | GI50 ([25]; PC-3): 2.88 µM | IC50 ([25]; PC-3): 4.9 µM | activity at 10 µM ([25]; PC-3, 48 h, read-out: Growth Percentage): 31.8% | CC50 ([25]; PC-3, read-out: LC50): > 100 µM | IC (TGI) ([25]; PC-3, read-out: TGI): 13.8 µM | GI50 ([26]; DU-145): 3.24 µM | IC50 ([26]; DU-145): 4.79 µM | activity at 10 µM ([26]; DU-145, 48 h, read-out: Growth Percentage): 16.1% | CC50 ([26]; DU-145, read-out: LC50): 42.7 µM | IC (TGI) ([26]; DU-145, read-out: TGI): 11.5 µM | GI50 ([27]; MDA-MB-231): 2.45 µM | IC50 ([27]; MDA-MB-231): 6.17 µM | activity at 10 µM ([27]; MDA-MB-231, 48 h, read-out: Growth Percentage): -0.43% | CC50 ([27]; MDA-MB-231, read-out: LC50): 39.8 µM | IC (TGI) ([27]; MDA-MB-231, read-out: TGI): 6.92 µM | GI50 [28]: 3.09 µM | IC50 [28]: > 100 µM | activity at 10 µM [28, 31]: 47.2% | CC50 ([28]; read-out: LC50): > 100 µM | IC (TGI) ([28]; read-out: TGI): 85.1 µM | GI50 [29]: 2.45 µM | IC50 [29]: 3.72 µM | activity at 10 µM [29, 31]: 15.2% | IC (TGI) ([29]; read-out: TGI): 7.94 µM
